Source: ChEMBL document CHEMBL4507276 (2021)

What was measured:
[1] = target: T1, Muscarinic acetylcholine receptor M4 (Homo sapiens) (UniProt P08173); experiment: M4/H Cerep selectivity data (BI); conditions: Compound concentration 20.0 uM
T1 sequence (whole entry): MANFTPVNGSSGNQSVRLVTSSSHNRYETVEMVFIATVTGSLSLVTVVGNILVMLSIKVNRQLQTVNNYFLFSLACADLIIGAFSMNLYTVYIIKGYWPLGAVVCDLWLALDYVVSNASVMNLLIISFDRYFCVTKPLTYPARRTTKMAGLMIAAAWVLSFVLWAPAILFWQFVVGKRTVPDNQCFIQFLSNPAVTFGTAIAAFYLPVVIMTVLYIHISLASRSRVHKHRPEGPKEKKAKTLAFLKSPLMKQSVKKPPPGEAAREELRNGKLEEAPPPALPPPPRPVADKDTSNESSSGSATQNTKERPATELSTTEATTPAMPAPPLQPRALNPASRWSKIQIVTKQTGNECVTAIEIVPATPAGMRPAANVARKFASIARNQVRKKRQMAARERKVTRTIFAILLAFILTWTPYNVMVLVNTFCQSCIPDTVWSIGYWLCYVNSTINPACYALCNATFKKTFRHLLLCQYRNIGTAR

[2] = target: Substance-K receptor (Homo sapiens) (UniProt P21452); experiment: NK2/H Cerep selectivity data (BI); conditions: Compound concentration 20.0 uM
[3] = target: xanthine dehydrogenase/oxidase (Bos taurus, UniProt P80457); experiment: SUPOXXANOXID Cerep selectivity data (BI); set-up: mode of action inhibitor; conditions: cattle, xanthine oxidase enzyme assay; compound concentration 20 uM; read-out: % Ctrl
[4] = target: 5-hydroxytryptamine receptor 2B (Homo sapiens) (UniProt P41595); experiment: 5HT2B/HU Eurofins-Panlabs selectivity data (BI); conditions: Compound concentration 10.0 uM
Sequence of 5-hydroxytryptamine receptor 2B (Homo sapiens) (P41595 whole entry): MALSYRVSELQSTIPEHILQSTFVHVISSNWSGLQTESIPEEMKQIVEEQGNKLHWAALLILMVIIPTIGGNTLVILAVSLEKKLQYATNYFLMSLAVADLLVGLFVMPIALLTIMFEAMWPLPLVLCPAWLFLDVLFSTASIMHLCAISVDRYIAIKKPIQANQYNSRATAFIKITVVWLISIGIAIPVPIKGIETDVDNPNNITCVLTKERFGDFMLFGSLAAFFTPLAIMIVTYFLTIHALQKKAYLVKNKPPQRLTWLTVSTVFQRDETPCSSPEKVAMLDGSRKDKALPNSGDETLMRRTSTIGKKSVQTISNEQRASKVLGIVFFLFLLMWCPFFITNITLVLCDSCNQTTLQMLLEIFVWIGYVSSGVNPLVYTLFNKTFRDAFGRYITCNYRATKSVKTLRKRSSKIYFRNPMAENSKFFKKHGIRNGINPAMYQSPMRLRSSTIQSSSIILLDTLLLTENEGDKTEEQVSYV

[5] = target: Beta-1 adrenergic receptor (Homo sapiens) (UniProt P08588); experiment: BETA1/HU Eurofins-Panlabs selectivity data (BI); conditions: Compound concentration 10.0 uM
Sequence of Beta-1 adrenergic receptor (Homo sapiens) (P08588 whole entry, looked up): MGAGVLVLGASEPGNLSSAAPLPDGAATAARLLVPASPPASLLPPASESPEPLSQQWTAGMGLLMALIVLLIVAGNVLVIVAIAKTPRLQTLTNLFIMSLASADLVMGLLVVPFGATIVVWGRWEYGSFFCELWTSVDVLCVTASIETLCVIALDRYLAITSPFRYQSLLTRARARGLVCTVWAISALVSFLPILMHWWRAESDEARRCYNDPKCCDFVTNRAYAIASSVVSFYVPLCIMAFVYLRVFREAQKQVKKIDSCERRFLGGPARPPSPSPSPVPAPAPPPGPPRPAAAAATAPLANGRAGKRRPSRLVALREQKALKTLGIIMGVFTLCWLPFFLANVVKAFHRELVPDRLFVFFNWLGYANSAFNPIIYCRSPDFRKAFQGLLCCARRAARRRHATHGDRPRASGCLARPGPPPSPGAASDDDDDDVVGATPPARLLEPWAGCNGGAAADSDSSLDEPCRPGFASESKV

[6] = target: D(2) dopamine receptor (Homo sapiens) (UniProt P14416); experiment: D2S/HU Eurofins-Panlabs selectivity data (BI); conditions: Compound concentration 10.0 uM
Sequence of D(2) dopamine receptor (Homo sapiens) (P14416 whole entry): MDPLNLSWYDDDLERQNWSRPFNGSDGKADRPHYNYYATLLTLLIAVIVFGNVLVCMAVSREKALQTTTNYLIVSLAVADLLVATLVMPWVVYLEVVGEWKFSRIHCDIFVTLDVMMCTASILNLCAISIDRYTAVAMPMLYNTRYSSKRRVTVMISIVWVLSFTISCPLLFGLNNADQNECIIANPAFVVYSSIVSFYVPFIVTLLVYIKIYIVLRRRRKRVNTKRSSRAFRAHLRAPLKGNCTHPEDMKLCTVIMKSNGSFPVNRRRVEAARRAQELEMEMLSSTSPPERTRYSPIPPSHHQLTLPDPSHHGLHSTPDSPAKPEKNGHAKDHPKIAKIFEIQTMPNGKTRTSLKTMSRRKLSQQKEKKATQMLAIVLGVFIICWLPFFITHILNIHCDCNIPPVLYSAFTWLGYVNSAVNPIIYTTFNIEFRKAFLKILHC

[7] = target: D(3) dopamine receptor (Homo sapiens) (UniProt P35462); experiment: D3/HU Eurofins-Panlabs selectivity data (BI); conditions: Compound concentration 10.0 uM
Sequence of D(3) dopamine receptor (Homo sapiens) (P35462 whole entry): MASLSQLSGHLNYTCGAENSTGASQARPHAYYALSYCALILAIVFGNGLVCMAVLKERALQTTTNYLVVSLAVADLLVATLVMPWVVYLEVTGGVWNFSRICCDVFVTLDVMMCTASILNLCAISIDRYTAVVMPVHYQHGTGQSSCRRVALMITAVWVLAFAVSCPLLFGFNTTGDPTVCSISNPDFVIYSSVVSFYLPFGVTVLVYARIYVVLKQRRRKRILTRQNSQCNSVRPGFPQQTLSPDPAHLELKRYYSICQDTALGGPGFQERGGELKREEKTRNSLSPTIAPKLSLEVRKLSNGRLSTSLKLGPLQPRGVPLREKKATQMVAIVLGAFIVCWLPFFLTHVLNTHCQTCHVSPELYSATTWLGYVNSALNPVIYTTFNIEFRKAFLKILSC

[8] = target: Endothelin-1 receptor (Homo sapiens) (UniProt P25101); experiment: ETA/HU Eurofins-Panlabs selectivity data (BI); conditions: Compound concentration 10.0 uM
Sequence of Endothelin-1 receptor (Homo sapiens) (P25101 whole entry): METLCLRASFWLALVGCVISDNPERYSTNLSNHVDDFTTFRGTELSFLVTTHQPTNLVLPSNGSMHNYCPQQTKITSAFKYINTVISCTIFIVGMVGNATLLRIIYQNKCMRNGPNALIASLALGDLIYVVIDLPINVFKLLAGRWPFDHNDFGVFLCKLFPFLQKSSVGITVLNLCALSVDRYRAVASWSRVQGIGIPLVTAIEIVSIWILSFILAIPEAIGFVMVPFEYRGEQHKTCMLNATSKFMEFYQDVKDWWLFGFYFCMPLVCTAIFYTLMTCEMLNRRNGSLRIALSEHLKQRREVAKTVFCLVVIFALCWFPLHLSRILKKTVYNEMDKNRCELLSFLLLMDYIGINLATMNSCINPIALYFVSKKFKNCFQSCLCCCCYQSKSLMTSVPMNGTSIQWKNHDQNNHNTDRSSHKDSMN

[9] = target: Acetylcholine receptor subunit alpha (Homo sapiens) (UniProt P02708); experiment: NACH/H Eurofins-Panlabs selectivity data (BI); conditions: Compound concentration 10.0 uM
Sequence of Acetylcholine receptor subunit alpha (Homo sapiens) (P02708 whole entry): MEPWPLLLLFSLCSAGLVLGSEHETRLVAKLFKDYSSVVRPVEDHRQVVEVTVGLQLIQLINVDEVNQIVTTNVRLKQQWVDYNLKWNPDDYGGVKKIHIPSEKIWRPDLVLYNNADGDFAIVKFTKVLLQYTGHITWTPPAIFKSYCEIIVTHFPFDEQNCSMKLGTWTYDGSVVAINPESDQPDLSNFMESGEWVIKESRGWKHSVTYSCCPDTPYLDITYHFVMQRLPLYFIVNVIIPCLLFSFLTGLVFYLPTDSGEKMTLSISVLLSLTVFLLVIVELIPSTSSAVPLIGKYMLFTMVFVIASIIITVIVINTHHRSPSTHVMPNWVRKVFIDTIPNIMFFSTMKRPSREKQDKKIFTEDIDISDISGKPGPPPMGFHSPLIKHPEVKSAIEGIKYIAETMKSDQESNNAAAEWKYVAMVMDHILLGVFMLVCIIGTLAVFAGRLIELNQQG

[10] = target: Nicotinic acetylcholine receptor alpha-1/beta-1 (Homo sapiens) (UniProt P02708+P11230); experiment: NACH_BS_N/H Eurofins-Panlabs selectivity data (BI); format: protein-complex assay; conditions: Compound concentration 10.0 uM
[11] = target: Receptor tyrosine-protein kinase erbB-2 (Homo sapiens) (UniProt P04626); experiment: ERBB2 Invitrogen selectivity data (BI); conditions: Compound concentration 3.0 uM
[12] = tested on: T2, Receptor-type tyrosine-protein kinase FLT3 (Homo sapiens), P36888 [D835Y]; experiment: FLT3 D835Y Invitrogen selectivity data (BI); conditions: Compound concentration 3.0 uM
T2 sequence (whole entry): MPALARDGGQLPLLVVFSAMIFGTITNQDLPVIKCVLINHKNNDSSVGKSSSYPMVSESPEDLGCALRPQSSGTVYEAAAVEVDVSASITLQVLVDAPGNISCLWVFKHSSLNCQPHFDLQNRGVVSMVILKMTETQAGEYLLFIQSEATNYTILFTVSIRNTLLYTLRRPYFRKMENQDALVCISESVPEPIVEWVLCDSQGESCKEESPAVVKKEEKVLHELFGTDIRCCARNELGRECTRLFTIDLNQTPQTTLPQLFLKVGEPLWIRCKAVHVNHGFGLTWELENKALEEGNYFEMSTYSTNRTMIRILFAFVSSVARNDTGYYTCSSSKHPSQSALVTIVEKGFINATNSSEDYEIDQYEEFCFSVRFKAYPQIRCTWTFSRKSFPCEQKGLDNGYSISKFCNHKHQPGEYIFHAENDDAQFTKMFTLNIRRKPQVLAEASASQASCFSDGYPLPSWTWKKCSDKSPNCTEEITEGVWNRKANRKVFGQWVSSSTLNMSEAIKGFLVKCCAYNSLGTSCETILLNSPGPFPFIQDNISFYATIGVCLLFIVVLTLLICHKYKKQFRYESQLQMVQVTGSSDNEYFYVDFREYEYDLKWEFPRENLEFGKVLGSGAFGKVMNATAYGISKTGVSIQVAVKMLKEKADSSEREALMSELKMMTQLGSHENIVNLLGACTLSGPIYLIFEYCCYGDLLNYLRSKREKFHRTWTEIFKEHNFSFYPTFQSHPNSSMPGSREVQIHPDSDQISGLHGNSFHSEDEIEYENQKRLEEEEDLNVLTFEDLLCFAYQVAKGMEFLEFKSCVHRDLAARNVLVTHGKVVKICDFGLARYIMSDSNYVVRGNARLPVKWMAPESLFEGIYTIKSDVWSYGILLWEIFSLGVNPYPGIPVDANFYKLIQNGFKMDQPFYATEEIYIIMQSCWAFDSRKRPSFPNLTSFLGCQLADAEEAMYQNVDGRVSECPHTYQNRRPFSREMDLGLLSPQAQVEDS

[13] = target: Serine/threonine-protein kinase MARK2 (Homo sapiens) (UniProt Q7KZI7); experiment: MARK2 Invitrogen selectivity data (BI); conditions: Compound concentration 3.0 uM
Sequence of Serine/threonine-protein kinase MARK2 (Homo sapiens) (Q7KZI7 whole entry): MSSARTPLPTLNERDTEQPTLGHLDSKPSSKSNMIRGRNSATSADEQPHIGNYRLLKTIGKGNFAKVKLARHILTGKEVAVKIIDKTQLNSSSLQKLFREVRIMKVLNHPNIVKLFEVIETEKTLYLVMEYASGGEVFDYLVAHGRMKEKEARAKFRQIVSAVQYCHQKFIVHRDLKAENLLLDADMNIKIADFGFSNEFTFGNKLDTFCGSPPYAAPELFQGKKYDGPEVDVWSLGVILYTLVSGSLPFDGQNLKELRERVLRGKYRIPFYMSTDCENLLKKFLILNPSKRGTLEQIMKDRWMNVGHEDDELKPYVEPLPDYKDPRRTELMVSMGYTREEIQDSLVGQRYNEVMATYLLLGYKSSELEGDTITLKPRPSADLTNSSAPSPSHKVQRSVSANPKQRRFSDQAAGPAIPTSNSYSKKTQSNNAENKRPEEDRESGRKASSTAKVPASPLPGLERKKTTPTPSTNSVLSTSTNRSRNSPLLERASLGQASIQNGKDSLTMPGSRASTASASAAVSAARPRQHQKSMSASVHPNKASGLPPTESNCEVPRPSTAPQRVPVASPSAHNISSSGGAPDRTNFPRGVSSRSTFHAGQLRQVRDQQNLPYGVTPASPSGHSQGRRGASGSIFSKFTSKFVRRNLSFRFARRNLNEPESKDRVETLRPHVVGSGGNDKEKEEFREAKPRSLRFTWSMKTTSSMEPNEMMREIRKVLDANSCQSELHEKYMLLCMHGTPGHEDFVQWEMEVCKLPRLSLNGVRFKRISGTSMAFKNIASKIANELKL

[14] = target: T3, Serine/threonine-protein kinase Nek2 (Homo sapiens) (UniProt P51955); experiment: NEK2 Invitrogen selectivity data (BI); conditions: Compound concentration 3.0 uM
T3 sequence (whole entry): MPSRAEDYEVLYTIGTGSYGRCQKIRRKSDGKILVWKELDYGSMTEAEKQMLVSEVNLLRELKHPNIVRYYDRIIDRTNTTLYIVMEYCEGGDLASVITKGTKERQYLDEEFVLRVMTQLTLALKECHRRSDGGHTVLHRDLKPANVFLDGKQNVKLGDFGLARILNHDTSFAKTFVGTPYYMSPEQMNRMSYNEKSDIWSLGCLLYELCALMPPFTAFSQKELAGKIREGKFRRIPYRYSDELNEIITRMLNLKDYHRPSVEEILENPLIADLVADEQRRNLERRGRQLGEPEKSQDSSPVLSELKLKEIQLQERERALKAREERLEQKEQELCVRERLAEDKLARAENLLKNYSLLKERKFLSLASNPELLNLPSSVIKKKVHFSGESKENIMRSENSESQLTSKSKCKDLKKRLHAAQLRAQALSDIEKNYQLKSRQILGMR

[15] = target: Serine/threonine-protein kinase PAK 2 (Homo sapiens) (UniProt Q13177); experiment: PAK2 Invitrogen selectivity data (BI); conditions: Compound concentration 3.0 uM
Sequence of Serine/threonine-protein kinase PAK 2 (Homo sapiens) (Q13177 whole entry): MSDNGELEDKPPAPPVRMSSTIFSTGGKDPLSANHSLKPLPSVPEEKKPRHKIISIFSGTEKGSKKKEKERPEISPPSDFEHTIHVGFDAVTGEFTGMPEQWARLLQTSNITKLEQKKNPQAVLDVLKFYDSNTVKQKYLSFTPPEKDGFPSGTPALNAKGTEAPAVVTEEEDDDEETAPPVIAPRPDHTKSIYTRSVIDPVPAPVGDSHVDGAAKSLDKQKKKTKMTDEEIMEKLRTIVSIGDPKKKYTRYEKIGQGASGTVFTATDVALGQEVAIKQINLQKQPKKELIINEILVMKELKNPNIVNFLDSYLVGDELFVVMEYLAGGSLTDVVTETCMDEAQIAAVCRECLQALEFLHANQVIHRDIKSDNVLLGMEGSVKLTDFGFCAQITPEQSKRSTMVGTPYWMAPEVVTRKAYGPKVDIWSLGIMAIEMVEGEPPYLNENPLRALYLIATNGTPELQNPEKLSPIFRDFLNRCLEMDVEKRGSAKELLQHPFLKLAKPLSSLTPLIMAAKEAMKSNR

[16] = target: Serine/threonine-protein kinase PAK 5 (Homo sapiens) (UniProt Q9P286); experiment: PAK7 Invitrogen selectivity data (BI); conditions: Compound concentration 3.0 uM
Sequence of Serine/threonine-protein kinase PAK 5 (Homo sapiens) (Q9P286 whole entry, looked up, the tested form may be a part): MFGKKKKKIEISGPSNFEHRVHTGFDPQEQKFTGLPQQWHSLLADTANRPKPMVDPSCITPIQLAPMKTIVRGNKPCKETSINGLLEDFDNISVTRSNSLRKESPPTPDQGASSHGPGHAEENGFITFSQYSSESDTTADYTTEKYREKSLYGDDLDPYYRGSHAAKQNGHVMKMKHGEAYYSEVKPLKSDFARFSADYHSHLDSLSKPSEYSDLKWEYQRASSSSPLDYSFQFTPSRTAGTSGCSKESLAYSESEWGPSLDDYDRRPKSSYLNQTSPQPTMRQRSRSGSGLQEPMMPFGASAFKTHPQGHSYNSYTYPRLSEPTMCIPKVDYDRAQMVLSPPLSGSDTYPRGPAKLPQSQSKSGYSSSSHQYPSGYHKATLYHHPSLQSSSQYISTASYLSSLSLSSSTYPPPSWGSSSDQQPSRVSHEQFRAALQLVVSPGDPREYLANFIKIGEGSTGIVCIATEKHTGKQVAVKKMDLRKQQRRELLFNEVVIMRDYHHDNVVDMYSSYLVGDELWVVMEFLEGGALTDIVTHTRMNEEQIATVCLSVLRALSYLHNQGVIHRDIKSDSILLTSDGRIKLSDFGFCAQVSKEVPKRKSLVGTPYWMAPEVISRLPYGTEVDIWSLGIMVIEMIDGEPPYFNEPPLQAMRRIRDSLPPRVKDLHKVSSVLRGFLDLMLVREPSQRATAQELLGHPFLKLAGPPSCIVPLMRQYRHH

[17] = target: Phosphatidylinositol 4-phosphate 3-kinase C2 domain-containing subunit beta (Homo sapiens) (UniProt O00750); experiment: PIK3C2B Invitrogen selectivity data (BI); conditions: Compound concentration 3.0 uM
[18] = target: Rho-associated protein kinase 1 (Homo sapiens) (UniProt Q13464); experiment: ROCK1 Invitrogen selectivity data (BI); conditions: Compound concentration 3.0 uM
[19] = target: Tyrosine-protein kinase SYK (Homo sapiens) (UniProt P43405); experiment: SYK Invitrogen selectivity data (BI); conditions: Compound concentration 3.0 uM

For `CN(C)C(=O)Cn1cc(-c2nc([C@@](C)(c3ccc(-c4cnc(N)nc4)cc3)C3CC3)no2)cn1` [BI 665915], the residual activity [1] was 103%, the residual activity [2] was 102% and the activity at 20 µM [3] was 85% (not active). It also gave a residual activity [4] of 97%, a residual activity [5] of 103% and a residual activity [6] of 94%. It also gave a residual activity [7] of 97%, a residual activity [8] of 98% and a residual activity [9] of 97%. It also gave a residual activity [10] of 99%, a residual activity [11] of 108% and a residual activity [12] of 79%. It also gave a residual activity [13] of 98.5%, a residual activity [14] of 88% and a residual activity [15] of 100%. The residual activity [16] was 97%, the residual activity [17] was 108% and the residual activity [18] was 99.5%. It also gave a residual activity [19] of 90%.
